Data from US9051351B2, “Hepatocyte growth factor mimics as therapeutic agents” (Washington State University, priority 2011, dated 2015).
Entries after “also recorded” stand apart in the source; their conditions may differ. Where a SMILES comes first, the peptide text is derived from it. [ ]: non-standard residue; d: D form. dNle = CCCC[C@@H](N)C(=O)O; Ahx = NCCCCCC(=O)O

Key:
human HGF = target: T1, human HGF (Homo sapiens, UniProt P14210); assay: HGF dimerization (PAGE, silver staining); type: biochemical; details: analog 10^−10 M, heparin, 30 minute incubation
T1 construct: purchased R&D Systems (Minneapolis, Minn.)
Protocol: HGF dimerization was assessed using PAGE followed by silver staining (Kawas et al., 2011). Human HGF at a concentration of 0.08 ng/μl with or without 6-AH analogs was incubated with heparin at a final concentration of 5 μg/ml. Loading buffer was then added to each sample and the mixture separated by native PAGE using gradient Criterion XT precast gels (4-12% Bis-Tris; Biorad Laboratories, Hercules, Calif.). Next the gel was silver stained for the detection of the HGF monomers and dimers. Bands were quantitated from digital images using a UVP phosphoimager (Upland, Calif.).

MDCK cells [1] = assay: HGF-dependent MDCK cell proliferation (MTT); type: cell-based, canine; details: analog 10^−10M, HGF 10 ng/ml, 4 days
Protocol: 5000 MDCK cells were seeded into the wells of a 96 well plates in 10% FBS DMEM. To induce cellular quiescence, the cells were serum deprived for 24 h prior to initiating the treatments. Following serum starvation, 10 ng/ml HGF alone and with various concentrations of 6-AH analogs or PBS vehicle were added to the media. The cells were allowed to grow under these conditions for 4 days with a daily addition of 6-AH analogs. On the fourth day, 1 mg/ml of […] (MTT, Sigma-Aldrich) prepared in PBS was added to the cells and incubated for 4 h. Dimethyl sulfoxide diluted in a 0.01M glycine buffer was added to solubilize the cell membranes and the absorbance of reduced MTT in the buffer was quantitated at 590 nm using a plate reader (Biotek Synergy 2, Winooski, Vt.). HGF-dependent proliferation was determined by subtracting the basal proliferation (in the absence of HGF) from total proliferation rates in groups containing HGF.

[2] = system: B16-F10 murine melanoma cells; assay: B16-F10 melanoma lung colony formation; type: in vivo, mouse; details: C57BL/6 mice; daily IP 10 μg/kg/day or 100 μg/kg/day, 14 days
Protocol: Six to eight month old C57BL/6 mice were injected with 400,000 B16-F10 cells in 200 μl PBS by tail vein injection and subsequently received daily intraperitoneal injections of either D-Nle-X-Cys-NH—(CH2)5—CONH2 (10 μg/kg and 100 μg/kg) or a PBS vehicle control. Two weeks later, mice were anesthetized and lungs were perfused with PBS and removed. Photos were taken and lungs were solubilized in 1% Triton x-100, 20 mM Tris, 0.15 M NaCl, 2 mM EDTA, and 0.02% sodium azide. Samples were disrupted by sonication (Mixonix, Farmingdale, N.Y.) and spun. The supernatant was transferred to a 96 well plate and melanin absorbance at […] was measured using a plate reader.

[3] = Blood stability in heparinized rat blood; type: in vitro ADME; details: 37° C.; single phase exponential decay
Protocol: At the end of each incubation, 20 μL of […]

[4] = rat, in vivo, iv, 24 mg/kg
Protocol: Male Sprague-Dawley rats (250+ g) were allowed food (Harlan Teklad rodent diet) and water ad libitum in our AAALAC certified animal facility. Rats were housed in temperature-controlled rooms with a 12 h light/dark cycle. The right jugular veins of the rats were catheterized with sterile polyurethane Hydrocoat™ catheters (Access Technologies, Skokie, Ill., USA) under ketamine (Fort Dodge Animal Health, Fort Dodge, Iowa, USA) and isoflurane (Vet One™, MWI, Meridian, Id., USA) anesthesia. The catheters were exteriorized through the dorsal skin. The catheters were flushed with heparinized saline before and after blood sample collection and filled with heparin-glycerol locking solution (6 mL glycerol, 3 mL saline, 0.5 mL gentamycin (100 mg/mL), 0.5 mL heparin (10,000 u/mL)) when not used for more than 8 h. The animals were allowed to recover from surgery for several days before use in any experiment, and were fasted overnight prior to the pharmacokinetic experiment. […]
Pharmacokinetic analysis was performed using data from individual rats. The mean and standard deviation (SD) were calculated for the group. Noncompartmental pharmacokinetic parameters were calculated from serum drug concentration-time profiles by use of WinNonlin® software (Pharsight, Mountain View, Calif., USA).

scopolamine treated rats = assay: Morris water maze, scopolamine amnesia model; type: in vivo, rat; details: for mean latency to find the pedestal: icv, Dihexa, Hinge 300 pmol, scopolamine 70 nmol
Protocol: Swim speed was determined from these values.

hippocampal neurons [5] = assay: Dendritic spine counts (spinogenesis) in mRFP-β-actin transfected dissociated hippocampal neurons; type: cell-based, rat
Protocol: Hippocampal neurons (2×10^5 cells per square cm) were cultured from P1 Sprague Dawley rats on plates coated with poly-L-lysine from Sigma (St. Louis, Mo.; molecular weight 300,000). […] Each experiment was repeated at least three times using independent culture preparations. […] Hippocampal neurons (2×10^5 cells per square centimeter) were cultured from P1-2 Sprague Dawley rats on plates coated with poly-L-lysine from Sigma (St. Louis, Mo.; molecular weight 300,000). Hippocampal neurons were maintained in Neurobasal A media from Invitrogen (Carlsbad, Calif.) supplemented with B27 from Invitrogen, 0.5 mM L-glutamine, and […] cytosine-D-arabinofuranoside from Sigma added at 2 days in vitro. Hippocampal neurons were then cultured a further 3-7 days, at which time they were either transfected or treated with various pharmacological reagents as described in the text or figure legends. Neurons were transfected with mRFP-β-actin on day in vitro 6 […] using LipofectAMINETM 2000 (Invitrogen) according to the manufacturer's protocol. […] On DIV7 the cells were treated with vehicle (H20) or peptides (as described in the text) added to media. […] Five 50 μm long segments of dendrite from at least 10 neurons per data point were analyzed for each data point reported. Each experiment was repeated at least three times using independent culture preparations. […] A target sequence for c-Met was designed using RNAi central design program (see the website located at […].edu/). The target sequence […] NO: 2) was inserted into pSUPER vector (Oligoengine, Seattle Wash.) which drives endogenous production of shRNA under the H1 promoter. The shRNA was transfected into cells using the lipofectamine method described above. Verification of receptor knockdown was done by creating a c-[…]-Myc tagged gene product using the Gateway cloning system (Invitrogen). The Met protein coding sequence was cloned from rat whole brain cDNA using primers obtained from Integrated DNA Technologies, Inc. The amplified product was gel purified and a band corresponding to 190 kDa band excised and cloned into a […] destination vector (Gateway). Hippocampal neurons (2×10^5 cells per square cm) were cultured from P1 Sprague Dawley rats on plates coated with poly-L-lysine from Sigma (St. Louis, Mo.; molecular weight […]).

hippocampal neurons [6] = assay: Whole-cell recordings of mEPSCs in dissociated hippocampal neurons; type: cell-based, rat; details: Dihexa, Hinge 10^−12 M; HGF 10 ng/ml; 5 days
MDCK cells [7] = assay: Inhibition of HGF-dependent scattering in MDCK cells; type: cell-based, canine
Protocol: MDCK cells were grown to 100% confluency on the coverslips in six-well plates and washed twice with PBS. The confluent coverslips were then aseptically transferred to new six well plates containing 900 μl serum free DMEM. Norleual, Hinge peptide, and/or HGF (20 ng/ml) were added to appropriate wells. Control wells received PBS vehicle. Plates were incubated at 37° C. with 5% CO2 for 48 hours. Media was removed and cells were fixed with methanol. Cells were stained with Diff-Quik Wright-Giemsa (Dade-Behring, Newark, Del.) and digital images were taken. Coverslips were removed with forceps and more digital images were captured. Pixel quantification of images was achieved using Image J and statistics were performed using Prism 5 and InStat v.3.05.
MDCK cells were grown to 100% confluency on the coverslips in six-well plates and washed twice with PBS. The confluent coverslips were then aseptically transferred to new six well plates containing 900 μl serum free DMEM. Norleual, Hinge peptide, and/or HGF (20 ng/ml) were added to appropriate wells. Control wells received PBS vehicle. Plates were incubated at 37° C. with 5% CO2 for 48 h. Media was removed and cells were fixed with methanol. […] Pixel quantification of images was achieved using Image J and statistics were performed using Prism 5 and InStat v.3.05 (GraphPad; San Diego, Calif.).

T1 sequence (P14210 32-728): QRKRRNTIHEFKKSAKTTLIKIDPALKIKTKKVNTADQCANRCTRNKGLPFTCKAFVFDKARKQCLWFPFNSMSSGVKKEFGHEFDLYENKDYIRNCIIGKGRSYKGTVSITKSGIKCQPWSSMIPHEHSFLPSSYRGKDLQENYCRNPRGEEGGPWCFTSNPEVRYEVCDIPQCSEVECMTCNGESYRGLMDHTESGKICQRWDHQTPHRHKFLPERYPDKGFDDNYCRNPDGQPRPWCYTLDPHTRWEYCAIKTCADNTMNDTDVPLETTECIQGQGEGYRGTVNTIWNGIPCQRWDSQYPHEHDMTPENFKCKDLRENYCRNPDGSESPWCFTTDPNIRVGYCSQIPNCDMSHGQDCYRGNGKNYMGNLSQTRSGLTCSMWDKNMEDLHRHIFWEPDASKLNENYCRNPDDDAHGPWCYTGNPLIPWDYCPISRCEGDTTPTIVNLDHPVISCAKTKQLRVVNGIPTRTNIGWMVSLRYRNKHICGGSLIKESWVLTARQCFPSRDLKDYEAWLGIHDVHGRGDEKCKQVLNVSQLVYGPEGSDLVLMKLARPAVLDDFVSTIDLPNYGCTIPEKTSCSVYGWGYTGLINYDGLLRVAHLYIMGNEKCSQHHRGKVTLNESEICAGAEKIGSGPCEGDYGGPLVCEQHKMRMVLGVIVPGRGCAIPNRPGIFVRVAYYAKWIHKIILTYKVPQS

Row | Compound | inhibition of HGF dimerization (human HGF) | inhibition of HGF dimerization (human HGF; listed as Cys) | inhibition of HGF-dependent MDCK cell proliferation (MDCK cells [1]) | B16-F10 melanoma lung colonization [2] | stability t1/2 in heparinized rat blood [3] | inhibition of HGF dimerization (human HGF; listed as Tyr) | Cp^0 [4] | KE [4] | mean latency to find the pedestal (scopolamine treated rats; day one of training) | mean latency to find the pedestal (scopolamine treated rats; final day of training (day 8)) | mean latency to find the pedestal (scopolamine treated rats; fourth day of training) | latency to escape, Morris water maze (FIG. 21) (scopolamine treated rats; i.c.v. injections, 8 days of training) | inhibition of HGF-, Nle1-AngIV- and Dihexa-induced spinogenesis by Hinge (hippocampal neurons [5]; Hinge 10^−12 M, HGF 10 ng/ml, Nle1-AngIV or Dihexa 10^−12 M) | effect of Hinge alone on spinogenesis (hippocampal neurons [5]; wide range of doses) | mean frequency of mEPSCs (hippocampal neurons [6]) | inhibition of MDCK cell scattering by Hinge (MDCK cells [7])
1 | CCCC[C@@H](N)C(=O)N[C@@H](CS)C(=O)N[C@H](C(=O)NCCCCCC(N)=O)[C@@H](C)CC [D-Nle-Cys-Ile-NH—(CH2)5—CONH2] (H-[dNle]CI[Ahx]-NH2) | completely block HGF dimer formation | statistically different than the HGF treated group | marked inhibitory activity | suppressed pulmonary colonization; also recorded: radically prevented lung colonization; also recorded: obvious reduction in melanoma colonies | – | – | – | – | – | – | – | – | – | – | – | –
2 | CCCC[C@@H](N)C(=O)N[C@@H](Cc1ccc(O)cc1)C(=O)N[C@H](C(=O)NCCCCCC(N)=O)[C@@H](C)CC (H-[dNle]YI[Ahx]-NH2) | completely block HGF dimer formation | – | marked inhibitory activity | – | 1.333 h | statistically different than the HGF treated group | 68.2 ± 32.2 ng/mL | 0.001 ± 0.0002 min⁻¹ | – | – | – | – | – | – | – | –
3 | Hinge: novel HGF antagonist Hinge (DYIRNC, SEQ ID NO: 3); elsewhere Hinge peptide (KDYIRN), the dimerization domain of HGF (Synthetic hinge peptide) [reference compound] | – | – | – | – | – | – | – | – | 111.1 s | 46.1 s | 78.3 s | no effect on learning | effectively inhibit spine formation; also recorded: inhibits HGF-induced spinogenesis; also recorded: inhibits Nle1-AngIV-induced spinogenesis; also recorded: inhibits Dihexa-induced spinogenesis | no effect on spinogenesis over a wide range of doses; also recorded: does not affect spinogenesis | 4.51±0.47 | inhibit scattering of Madin-Darby canine kidney (MDCK) cells
